Test results published in ChEMBL document CHEMBL5723379, “Affinity On-target Cellular Literature for EUbOPEN Chemogenomic Library” (2024).
pEC50, pIC50: −log10 of the molar value. Blank lines part the entries; values can stand above or below the compound they belong to.

Assays:
[1] = target: T1, Oxysterols receptor LXR-beta (Homo sapiens, UniProt P55055); assay: Affinity On-target Cellular interaction: (Reporter gene assay (HEK293T cells)) EUB0001167a NR1H2; type: functional, cell-based, HEK-293T; parameters: mode of action Agonist, recommended concentration 1 uM
T1 sequence (P55055 whole entry): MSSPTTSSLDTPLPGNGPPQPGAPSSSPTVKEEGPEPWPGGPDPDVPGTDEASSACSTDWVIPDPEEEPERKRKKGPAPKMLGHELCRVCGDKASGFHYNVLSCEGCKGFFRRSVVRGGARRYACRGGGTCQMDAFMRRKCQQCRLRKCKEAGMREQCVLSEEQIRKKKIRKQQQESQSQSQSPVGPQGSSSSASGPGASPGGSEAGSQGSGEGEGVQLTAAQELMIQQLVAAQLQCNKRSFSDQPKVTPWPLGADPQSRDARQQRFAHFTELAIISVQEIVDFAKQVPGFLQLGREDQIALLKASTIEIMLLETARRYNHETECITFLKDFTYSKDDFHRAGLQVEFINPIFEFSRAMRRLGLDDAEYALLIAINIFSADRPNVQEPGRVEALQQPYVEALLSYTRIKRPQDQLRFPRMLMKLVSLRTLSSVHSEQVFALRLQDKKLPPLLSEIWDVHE

[2] = target: T2, Nuclear receptor ROR-beta (Homo sapiens, UniProt Q92753); assay: Affinity On-target Cellular interaction: (Reporter gene assay (HEK293T cells)) EUB0001161a RORB; type: functional, cell-based, HEK-293T; parameters: mode of action Antagonist, recommended concentration 10 uM
T2 sequence (Q92753 whole entry): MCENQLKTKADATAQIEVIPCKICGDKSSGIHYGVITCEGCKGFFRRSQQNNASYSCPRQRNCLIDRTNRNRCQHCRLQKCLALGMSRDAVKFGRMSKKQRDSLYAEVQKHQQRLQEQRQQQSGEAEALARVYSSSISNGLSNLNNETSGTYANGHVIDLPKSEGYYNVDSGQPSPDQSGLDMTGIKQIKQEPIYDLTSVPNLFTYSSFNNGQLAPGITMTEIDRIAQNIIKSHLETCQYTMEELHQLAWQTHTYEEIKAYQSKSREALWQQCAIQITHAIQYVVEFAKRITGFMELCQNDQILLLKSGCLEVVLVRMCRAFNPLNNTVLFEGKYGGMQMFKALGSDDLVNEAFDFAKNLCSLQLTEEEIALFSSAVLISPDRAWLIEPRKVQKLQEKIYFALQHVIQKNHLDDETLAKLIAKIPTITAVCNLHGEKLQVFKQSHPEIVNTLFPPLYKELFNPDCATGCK

[3] = target: T3, Nuclear receptor subfamily 1 group D member 1 (Homo sapiens, UniProt P20393); assay: Affinity On-target Cellular interaction: (Reporter gene assay (HEK293T cells)) EUB0001153a NR1D1; type: functional, cell-based, HEK-293T; parameters: mode of action Antagonist, recommended concentration 10 uM
T3 sequence (P20393 whole entry): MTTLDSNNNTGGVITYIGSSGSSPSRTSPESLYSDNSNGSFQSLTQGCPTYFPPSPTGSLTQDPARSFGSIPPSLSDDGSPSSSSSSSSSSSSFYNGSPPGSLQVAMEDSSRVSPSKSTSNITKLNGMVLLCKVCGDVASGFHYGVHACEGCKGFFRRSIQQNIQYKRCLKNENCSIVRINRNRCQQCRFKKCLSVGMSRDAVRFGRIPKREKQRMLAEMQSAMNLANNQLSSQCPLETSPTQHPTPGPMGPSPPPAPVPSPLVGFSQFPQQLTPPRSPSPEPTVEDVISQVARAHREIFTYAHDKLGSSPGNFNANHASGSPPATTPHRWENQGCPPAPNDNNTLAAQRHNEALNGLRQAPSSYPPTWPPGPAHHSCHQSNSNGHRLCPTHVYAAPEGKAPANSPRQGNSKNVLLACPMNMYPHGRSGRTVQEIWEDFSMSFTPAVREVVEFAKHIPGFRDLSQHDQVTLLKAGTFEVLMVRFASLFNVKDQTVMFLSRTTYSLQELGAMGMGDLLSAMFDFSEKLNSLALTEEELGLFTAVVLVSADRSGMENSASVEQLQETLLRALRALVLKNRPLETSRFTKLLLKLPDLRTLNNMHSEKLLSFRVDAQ

[4] = target: Nuclear receptor subfamily 1 group I member 2 (Homo sapiens, UniProt O75469); assay: Affinity On-target Cellular interaction: (Reporter gene assay (HEK293T cells)) EUB0002359a NR1I2; type: functional, cell-based, HEK-293T; parameters: mode of action Agonist, recommended concentration 1 uM
Nuclear receptor subfamily 1 group I member 2, sequence (O75469 whole entry): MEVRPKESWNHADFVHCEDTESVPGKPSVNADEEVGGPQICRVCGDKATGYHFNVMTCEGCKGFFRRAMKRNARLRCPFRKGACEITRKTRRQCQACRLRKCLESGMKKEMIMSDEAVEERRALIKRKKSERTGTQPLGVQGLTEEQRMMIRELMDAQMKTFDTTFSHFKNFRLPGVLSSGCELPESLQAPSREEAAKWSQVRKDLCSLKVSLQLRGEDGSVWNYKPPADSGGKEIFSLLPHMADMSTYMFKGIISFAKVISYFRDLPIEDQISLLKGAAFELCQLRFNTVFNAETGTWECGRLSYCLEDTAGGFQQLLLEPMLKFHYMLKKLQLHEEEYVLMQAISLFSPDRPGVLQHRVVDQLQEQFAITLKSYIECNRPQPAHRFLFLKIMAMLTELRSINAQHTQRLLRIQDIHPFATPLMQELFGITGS

Adenosine kinase = Adenosine kinase (Homo sapiens, UniProt P55263); assay: Affinity On-target Cellular interaction: (Intact cell adenosine phosphorylation assay (radiochemical), IMR-32 human neuroblastoma cells) EUB0002485aCl ADK; type: functional, cell-based; parameters: mode of action Inhibitor, recommended concentration 1 uM
Adenosine kinase, sequence (P55263 whole entry): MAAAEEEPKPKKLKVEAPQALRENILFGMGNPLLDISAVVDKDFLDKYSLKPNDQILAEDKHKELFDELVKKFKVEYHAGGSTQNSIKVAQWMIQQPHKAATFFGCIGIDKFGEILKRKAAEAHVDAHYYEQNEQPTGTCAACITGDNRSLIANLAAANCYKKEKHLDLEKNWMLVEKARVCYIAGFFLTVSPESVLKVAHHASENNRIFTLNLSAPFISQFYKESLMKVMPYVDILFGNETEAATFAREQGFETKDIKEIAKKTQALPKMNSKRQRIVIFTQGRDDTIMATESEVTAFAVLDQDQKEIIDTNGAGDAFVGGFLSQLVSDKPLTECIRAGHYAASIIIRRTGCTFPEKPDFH

[5] = target: T4, Oxysterols receptor LXR-alpha (Homo sapiens, UniProt Q13133); assay: Affinity On-target Cellular interaction: (Reporter gene assay (HEK293T cells)) EUB0001166a NR1H3; type: functional, cell-based, HEK-293T; parameters: mode of action Agonist, recommended concentration 1 uM
T4 sequence (Q13133 whole entry): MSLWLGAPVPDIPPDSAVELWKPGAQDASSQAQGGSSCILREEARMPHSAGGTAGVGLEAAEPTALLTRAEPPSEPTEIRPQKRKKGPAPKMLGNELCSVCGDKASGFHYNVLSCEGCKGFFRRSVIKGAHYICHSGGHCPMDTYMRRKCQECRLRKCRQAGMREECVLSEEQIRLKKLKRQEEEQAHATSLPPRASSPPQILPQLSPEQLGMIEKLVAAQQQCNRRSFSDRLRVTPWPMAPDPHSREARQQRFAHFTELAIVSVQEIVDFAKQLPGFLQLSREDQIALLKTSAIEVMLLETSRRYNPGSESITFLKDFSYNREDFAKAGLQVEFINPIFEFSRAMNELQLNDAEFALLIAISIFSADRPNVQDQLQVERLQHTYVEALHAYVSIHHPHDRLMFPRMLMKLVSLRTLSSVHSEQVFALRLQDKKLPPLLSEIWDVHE

[6] = target: T1, Oxysterols receptor LXR-beta; assay: Affinity On-target Cellular interaction: (Reporter gene assay (HEK293T cells)) EUB0001166a NR1H2; type: functional, cell-based, HEK-293T; parameters: mode of action Agonist, recommended concentration 1 uM
[7] = target: T5, Nuclear receptor ROR-gamma (Homo sapiens, UniProt P51449)
T5 sequence (P51449 whole entry): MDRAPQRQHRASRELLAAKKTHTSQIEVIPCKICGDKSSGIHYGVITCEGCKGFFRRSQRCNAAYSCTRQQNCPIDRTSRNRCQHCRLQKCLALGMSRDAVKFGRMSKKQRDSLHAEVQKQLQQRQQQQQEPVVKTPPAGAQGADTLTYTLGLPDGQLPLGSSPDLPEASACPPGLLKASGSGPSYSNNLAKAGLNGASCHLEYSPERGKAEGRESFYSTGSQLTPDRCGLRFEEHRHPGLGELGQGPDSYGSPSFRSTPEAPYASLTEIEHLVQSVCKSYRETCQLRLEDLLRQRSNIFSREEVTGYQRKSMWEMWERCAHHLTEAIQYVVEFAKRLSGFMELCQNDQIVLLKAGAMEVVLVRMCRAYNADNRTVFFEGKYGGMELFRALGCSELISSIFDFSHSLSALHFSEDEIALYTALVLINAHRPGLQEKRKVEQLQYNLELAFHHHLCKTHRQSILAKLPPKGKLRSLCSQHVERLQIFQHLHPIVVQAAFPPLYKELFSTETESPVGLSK

[8] = target: T2, Nuclear receptor ROR-beta; assay: Affinity On-target Cellular interaction: (Reporter gene assay (HEK293T cells)) EUB0001158a RORB; type: functional, cell-based, HEK-293T; parameters: mode of action Inverse Agonist, recommended concentration 1 uM
[9] = target: Nuclear receptor ROR-alpha (Homo sapiens, UniProt P35398); assay: Affinity On-target Cellular interaction: (Reporter gene assay (HEK293T cells)) EUB0001158a RORA; type: functional, cell-based, HEK-293T; parameters: mode of action Inverse Agonist, recommended concentration 1 uM
Nuclear receptor ROR-alpha, sequence (P35398 whole entry): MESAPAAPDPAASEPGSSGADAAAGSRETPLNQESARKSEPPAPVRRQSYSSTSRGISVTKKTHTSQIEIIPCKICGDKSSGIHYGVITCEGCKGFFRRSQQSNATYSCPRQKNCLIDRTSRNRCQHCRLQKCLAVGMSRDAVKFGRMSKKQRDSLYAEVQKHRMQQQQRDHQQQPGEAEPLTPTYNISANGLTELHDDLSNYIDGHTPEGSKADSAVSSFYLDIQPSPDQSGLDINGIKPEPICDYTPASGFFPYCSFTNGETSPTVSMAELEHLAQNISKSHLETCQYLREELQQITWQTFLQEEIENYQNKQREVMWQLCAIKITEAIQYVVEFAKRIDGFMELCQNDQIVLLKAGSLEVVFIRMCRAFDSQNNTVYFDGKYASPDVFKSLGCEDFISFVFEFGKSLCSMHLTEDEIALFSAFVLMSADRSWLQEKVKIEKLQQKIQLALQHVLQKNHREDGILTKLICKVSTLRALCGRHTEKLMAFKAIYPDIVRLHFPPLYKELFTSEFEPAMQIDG

[10] = target: T5, Nuclear receptor ROR-gamma; remark: listed apart in the source
[11] = target: Sodium/glucose cotransporter 2 (Homo sapiens, UniProt P31639); assay: Affinity On-target Cellular interaction: (AMG uptake assay in presence of 25% human plasma, 293.ETN cells) EUB0002515a SLC5A2; type: functional, HEK293; parameters: mode of action Inhibitor, recommended concentration 1 uM
Sodium/glucose cotransporter 2, sequence (P31639 whole entry): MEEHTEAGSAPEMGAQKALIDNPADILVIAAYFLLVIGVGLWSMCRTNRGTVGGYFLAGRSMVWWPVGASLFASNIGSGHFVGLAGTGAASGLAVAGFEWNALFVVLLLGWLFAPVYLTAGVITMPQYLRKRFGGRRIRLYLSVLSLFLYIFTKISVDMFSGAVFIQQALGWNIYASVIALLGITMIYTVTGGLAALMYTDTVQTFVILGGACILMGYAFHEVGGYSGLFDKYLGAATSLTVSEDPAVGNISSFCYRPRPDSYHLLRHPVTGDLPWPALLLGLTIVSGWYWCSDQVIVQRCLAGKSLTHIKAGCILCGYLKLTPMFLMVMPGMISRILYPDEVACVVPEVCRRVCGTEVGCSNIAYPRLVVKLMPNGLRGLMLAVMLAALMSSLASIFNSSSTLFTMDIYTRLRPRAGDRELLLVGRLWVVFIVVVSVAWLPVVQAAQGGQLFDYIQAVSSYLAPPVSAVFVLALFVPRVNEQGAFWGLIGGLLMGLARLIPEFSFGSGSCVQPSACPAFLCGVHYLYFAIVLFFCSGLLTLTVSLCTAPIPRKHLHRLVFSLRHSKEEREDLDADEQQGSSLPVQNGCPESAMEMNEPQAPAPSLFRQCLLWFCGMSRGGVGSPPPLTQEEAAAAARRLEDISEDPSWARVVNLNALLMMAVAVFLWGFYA

[12] = target: Nuclear receptor subfamily 1 group D member 2 (Homo sapiens, UniProt Q14995); assay: Affinity On-target Cellular interaction: (Reporter gene assay (HEK293T cells)) EUB0001155a NR1D2; type: functional, cell-based, HEK-293T; parameters: mode of action Agonist, recommended concentration 10 uM
Nuclear receptor subfamily 1 group D member 2, sequence (Q14995 whole entry): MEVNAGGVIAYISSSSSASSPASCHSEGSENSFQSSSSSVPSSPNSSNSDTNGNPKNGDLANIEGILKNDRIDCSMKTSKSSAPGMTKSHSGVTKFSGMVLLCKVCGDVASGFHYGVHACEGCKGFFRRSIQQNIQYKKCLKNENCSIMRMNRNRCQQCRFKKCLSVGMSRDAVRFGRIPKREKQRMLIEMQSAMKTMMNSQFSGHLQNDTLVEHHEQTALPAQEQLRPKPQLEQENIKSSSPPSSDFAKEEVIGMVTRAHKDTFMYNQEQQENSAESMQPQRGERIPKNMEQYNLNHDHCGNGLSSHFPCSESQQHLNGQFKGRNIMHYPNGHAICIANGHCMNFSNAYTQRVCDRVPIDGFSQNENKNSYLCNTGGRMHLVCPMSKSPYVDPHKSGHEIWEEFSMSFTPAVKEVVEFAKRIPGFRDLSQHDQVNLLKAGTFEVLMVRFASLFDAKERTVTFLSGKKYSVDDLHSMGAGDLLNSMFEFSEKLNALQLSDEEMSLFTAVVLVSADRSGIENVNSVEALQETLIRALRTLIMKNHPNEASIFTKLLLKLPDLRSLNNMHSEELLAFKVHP

[13] = target: T3, Nuclear receptor subfamily 1 group D member 1; assay: Affinity On-target Cellular interaction: (Reporter gene assay (HEK293T cells)) EUB0001155a NR1D1; type: functional, cell-based, HEK-293T; parameters: mode of action Agonist, recommended concentration 10 uM
Histone deacetylase 1 = Histone deacetylase 1 (Homo sapiens, UniProt Q13547); assay: Affinity On-target Cellular interaction: (Inhibition of enzyme activity in 293T cells transfected with vector alone) EUB0002519a HDAC1; type: functional, cell-based, HEK-293T; parameters: mode of action Inhibitor, recommended concentration 1 uM
Histone deacetylase 1, sequence (Q13547 whole entry): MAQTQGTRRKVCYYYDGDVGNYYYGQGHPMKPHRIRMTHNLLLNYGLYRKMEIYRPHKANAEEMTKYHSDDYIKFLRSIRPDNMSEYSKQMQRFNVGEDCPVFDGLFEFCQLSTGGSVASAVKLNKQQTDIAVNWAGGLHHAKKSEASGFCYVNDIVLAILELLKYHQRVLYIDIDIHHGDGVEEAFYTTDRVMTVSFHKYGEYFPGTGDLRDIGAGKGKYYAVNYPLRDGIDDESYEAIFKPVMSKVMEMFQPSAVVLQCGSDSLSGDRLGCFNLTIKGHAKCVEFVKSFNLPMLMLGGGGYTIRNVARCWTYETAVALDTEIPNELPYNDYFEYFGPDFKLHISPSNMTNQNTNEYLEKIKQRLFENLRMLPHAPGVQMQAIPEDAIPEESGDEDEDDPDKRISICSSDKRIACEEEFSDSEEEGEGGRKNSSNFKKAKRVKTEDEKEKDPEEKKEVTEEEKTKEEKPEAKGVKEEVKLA

Histone deacetylase 2 = Histone deacetylase 2 (Homo sapiens, UniProt Q92769); assay: Affinity On-target Cellular interaction: (Inhibition of enzyme activity in 293T cells transfected with vector alone) EUB0002519a HDAC2; type: functional, cell-based, HEK-293T; parameters: mode of action Inhibitor, recommended concentration 1 uM
Histone deacetylase 2, sequence (Q92769 whole entry): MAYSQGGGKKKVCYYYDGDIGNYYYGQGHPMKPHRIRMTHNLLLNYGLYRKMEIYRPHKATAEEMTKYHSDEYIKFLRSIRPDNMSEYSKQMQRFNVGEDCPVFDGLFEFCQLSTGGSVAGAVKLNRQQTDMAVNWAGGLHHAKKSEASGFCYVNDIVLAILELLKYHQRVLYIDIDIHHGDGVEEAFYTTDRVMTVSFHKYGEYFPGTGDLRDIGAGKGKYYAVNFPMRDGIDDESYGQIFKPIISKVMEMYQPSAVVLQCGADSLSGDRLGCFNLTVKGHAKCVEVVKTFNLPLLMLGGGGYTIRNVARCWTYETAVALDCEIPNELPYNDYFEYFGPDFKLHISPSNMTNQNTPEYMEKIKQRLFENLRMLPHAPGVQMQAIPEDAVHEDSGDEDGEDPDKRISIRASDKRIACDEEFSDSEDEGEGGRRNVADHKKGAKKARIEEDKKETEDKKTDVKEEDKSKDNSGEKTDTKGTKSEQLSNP

[14] = target: T6, Peroxisome proliferator-activated receptor delta (Homo sapiens, UniProt Q03181); assay: Affinity On-target Cellular interaction: (Reporter gene assay (HEK293T cells)) EUB0001483aCl PPARD; type: functional, cell-based, HEK-293T; parameters: mode of action Antagonist, recommended concentration 10 uM
T6 sequence (Q03181 whole entry): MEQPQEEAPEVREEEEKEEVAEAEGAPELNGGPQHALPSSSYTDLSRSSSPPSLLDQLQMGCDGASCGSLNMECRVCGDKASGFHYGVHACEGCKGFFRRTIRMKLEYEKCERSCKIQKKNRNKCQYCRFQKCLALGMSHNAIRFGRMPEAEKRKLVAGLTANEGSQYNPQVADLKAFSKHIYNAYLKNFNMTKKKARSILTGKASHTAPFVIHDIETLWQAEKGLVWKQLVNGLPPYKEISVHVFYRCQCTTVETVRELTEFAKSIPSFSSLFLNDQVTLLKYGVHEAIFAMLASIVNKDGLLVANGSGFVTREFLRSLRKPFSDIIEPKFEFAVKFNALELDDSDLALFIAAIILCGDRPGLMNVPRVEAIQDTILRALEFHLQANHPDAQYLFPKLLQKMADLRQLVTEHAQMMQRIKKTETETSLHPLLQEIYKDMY

Structure (SMILES): CC(=O)Oc1ccc2c(c1)[C@@]1(C)CCC[C@](C)(C(=O)OC(=O)[C@@]3(C)CCC[C@]4(C)c5cc(OC(C)=O)ccc5CC[C@@H]34)[C@@H]1CC2 [ACETYL PODOCARPIC ACID ANHYDRIDE]
pEC50 [1]: 9.00

Structure (SMILES): COc1cc(O)c(C(CC(=O)N2C[C@H](C)C[C@H](C)C2)c2ccc3c(c2)OCO3)c(OC)c1 (some centres not stated)
pIC50 [2]: 5.89

Structure (SMILES): CC(C)c1c(CN(C)C(C)Cc2ccccc2)n(C)n(-c2ccccc2)c1=O (configuration not stated) [FAMPROFAZONE]
pEC50 [4]: 6.89

Structure (SMILES): CC(=O)Nc1nc(C)c(S(=O)(=O)Nc2ccc(C(O)(C(F)(F)F)C(F)(F)F)cc2)s1
pIC50 [7]: 6.96
pIC50 [8]: 5.96
pIC50 [9]: 6.05

Structure (SMILES): O=C(Nc1ccc(C(O)(C(F)(F)F)C(F)(F)F)cc1)c1ccc(C(F)(F)F)cc1
pEC50 [10]: 5.70

Structure (SMILES): OC[C@H]1O[C@@H](c2ccc(Cl)c(Cc3ccc(OCCOC4CC4)cc3)c2)[C@H](O)[C@@H](O)[C@@H]1O [BEXAGLIFLOZIN]
pIC50 [11]: 8.70

Structure (SMILES): CCCCCNC(=O)N1CCC(CN(Cc2ccc(Cl)cc2)Cc2ccc([N+](=O)[O-])s2)C1 (configuration not stated) [SR9011]
pEC50 [12]: 5.52
pEC50 [13]: 5.70

Structure (SMILES): Nc1ccc(-c2cccs2)cc1NC(=O)c1ccc(NC=O)cc1
pIC50 (Histone deacetylase 1): 6.52
pIC50 (Histone deacetylase 2): 6.52

The remaining lines, values ahead:

pIC50 [3]: 6.33
Structure (SMILES): CCOC(=O)C1Cc2ccccc2CN1C(=O)c1ccc(SC)s1 (configuration not stated)

pIC50 (Adenosine kinase): 7.29
Structure (SMILES): Nc1ncnc2nc(-c3ccc(N4CCOCC4)nc3)cc(-c3cccc(Br)c3)c12

pEC50 [5]: 6.70
pEC50 [6]: 6.52
Structure (SMILES): CC(C)(O)c1cn(-c2ccc(-c3cccc(S(C)(=O)=O)c3)cc2)c(C(C)(C)c2ccccc2Cl)n1 [BMS-779788]

pIC50 [14]: 5.74
Structure (SMILES): CN1CCN(c2ccc(/C=C(\C#N)c3ccccc3Br)cc2)CC1
